Assay results published in US6277851A, “Bicyclic amino-pyrazinone compounds” (priority 1999, dated 2001).
Structures can show the parent of a compound that is named as a salt.

Experiments:
human plasma [1] = experiment: Anti-coagulant activity, thrombin time (TT) in human plasma; type: biochemical; settings: 37° C.
Method: (§1) In order to evaluate the anti-coagulant activity of the compounds of the invention, the thrombin time (TT) and activated cephalin time (ACT) were determined from human plasma samples. An ST4 coagulometer (Diagnostica Stago, France) was used. Plasma, deficient in platelets and lyophilised (Stago), is taken up in distilled water. The TT is obtained using the reagent Prest Thrombin and the ACT using the reagent PTT Automate […]. […] Under those conditions, the TT is of the order of 18 seconds and the ACT is of the order of 12 seconds. The activity of an antagonist is evaluated by its capacity to prolong the TT and the ACT relative to the control. The effect of the inhibitors is expressed by the concentration in μM that doubles the coagulation time (Ctt2).

human plasma [2] = experiment: Anti-coagulant activity, activated cephalin time (ACT) in human plasma; type: biochemical; settings: 37° C.
Method: as §1

human thrombin = biological target: T1, human thrombin (Homo sapiens, UniProt P00734); experiment: Inhibition of human thrombin (fibrinogen substrate, fibrin formation); type: biochemical; settings: human thrombin 0.7 nM, 10 min preincubation, 20° C., pH 7.4
T1 construct: purchased Sigma
Method: (§2) Inhibitors, enzymes and substrates are diluted in the same buffer ([…] phosphate buffer, pH 7.4, containing 0.12 M sodium chloride and 0.05% of bovine serum albumin) and then distributed on a polystyrene microtitre plate in a volume of 50 μl. The fibrin formed by the thrombin or by the paranitroanilide released by the action of the serine protease is measured using a spectrophotometer at 405 nm after from 15 to 30 minutes' reaction at 20° C. Table 2 below gives in nM the concentration of the compounds that inhibits 50% of the enzymatic activity (IC50) of the thrombin compared with the control without product.

dog plasma [3] = experiment: Anti-coagulant activity after administration per os to dogs, TT; type: in vivo; settings: p.o.
Method: (§3) […] The coagulation times (TT, ACT) are determined from dog plasma samples 10 minutes before and 30 min, 1 hour, 2 hours, 4 hours and 6 hours after administration of the products.

dog plasma [4] = experiment: Anti-coagulant activity after administration per os to dogs, ACT; type: in vivo; settings: p.o.
Method: as §3

human plasmin = biological target: T2, human plasmin (Homo sapiens, UniProt P00747); experiment: Inhibition of fibrinolysis serine proteases: plasmin; type: biochemical; settings: human plasmin 2 nM, substrate S 2403 0.50 mM, 20° C., pH 7.4
T2 construct: purchased Stago
T2 sequence (P00747 581-810 limits assumed): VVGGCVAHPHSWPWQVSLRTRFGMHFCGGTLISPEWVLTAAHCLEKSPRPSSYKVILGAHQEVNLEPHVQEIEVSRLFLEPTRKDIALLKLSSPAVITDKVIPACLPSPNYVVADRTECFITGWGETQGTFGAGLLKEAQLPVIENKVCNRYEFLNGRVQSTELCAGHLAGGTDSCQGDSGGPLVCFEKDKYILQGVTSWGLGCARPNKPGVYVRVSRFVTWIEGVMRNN
Method: as §2, with “Table 3” for “Table 2”, “the fibrinolysis proteases.” for “the thrombin compared with the control without product.”

t-PA = t-PA (Homo sapiens, UniProt P00750); experiment: Inhibition of fibrinolysis serine proteases: t-PA; type: biochemical; settings: fibrinolysis protease
t-PA, sequence (P00750 36-562): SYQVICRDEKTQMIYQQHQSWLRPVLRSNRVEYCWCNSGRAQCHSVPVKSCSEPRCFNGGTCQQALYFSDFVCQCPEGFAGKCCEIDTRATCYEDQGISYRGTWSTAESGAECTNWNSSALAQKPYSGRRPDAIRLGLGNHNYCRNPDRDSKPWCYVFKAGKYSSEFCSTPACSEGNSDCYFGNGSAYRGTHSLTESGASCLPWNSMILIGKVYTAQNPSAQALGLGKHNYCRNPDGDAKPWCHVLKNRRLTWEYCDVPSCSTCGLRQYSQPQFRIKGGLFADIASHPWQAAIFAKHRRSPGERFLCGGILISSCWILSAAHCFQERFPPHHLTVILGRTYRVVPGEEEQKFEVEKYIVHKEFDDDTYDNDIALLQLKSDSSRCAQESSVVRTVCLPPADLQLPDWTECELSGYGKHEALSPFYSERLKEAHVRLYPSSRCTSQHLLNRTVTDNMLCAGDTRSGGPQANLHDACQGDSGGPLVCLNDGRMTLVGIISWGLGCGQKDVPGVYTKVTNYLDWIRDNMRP
Method: as §2, with “Table 3” for “Table 2”, “the fibrinolysis proteases.” for “the thrombin compared with the control without product.”

uPA = uPA (Homo sapiens, UniProt P00749); experiment: Inhibition of fibrinolysis serine proteases: uPA; type: biochemical; settings: fibrinolysis protease
Method: as §2, with “Table 3” for “Table 2”, “the fibrinolysis proteases.” for “the thrombin compared with the control without product.”

Cc1nc(N)ccc1CNC(=O)[C@@H]1CCc2cnc(NCC(c3ccccc3)c3ccccn3)c(=O)n21 (single isomer, unassigned) [Example 20]
TT Ctt2 (concentration that doubles the coagulation time) (human plasma [1]): 0.15 µM
ACT Ctt2 (concentration that doubles the coagulation time) (human plasma [2]): 2.17 µM
IC50 (human thrombin): 6 nM
Maximum TT increase (number of times by which the initial time has been increased) (dog plasma [3]; 3 mg/kg): 4.4 times
Maximum ACT increase (number of times by which the initial time has been increased) (dog plasma [4]; 3 mg/kg): 1.4 times

Cc1nc(N)ccc1CNC(=O)[C@@H]1CCc2cnc(NCCc3ccccc3)c(=O)n21 [Example 1, (6S)-N-[(6-Amino-2-methyl-3-pyridyl)methyl]-4-oxo-3-(2-phenethylamino)-4,6,7,8-tetrahydropyrrolo[1,2-a]pyrazine-6-carboxamide dihydrochloride]
TT Ctt2 (concentration that doubles the coagulation time) (human plasma [1]): 3 µM
ACT Ctt2 (concentration that doubles the coagulation time) (human plasma [2]): 9.1 µM
IC50 (human thrombin): 34 nM
IC50 (human plasmin): > 33000 nM
IC50 (t-PA): > 33000 nM
IC50 (uPA): > 33000 nM
Maximum TT increase (number of times by which the initial time has been increased) (dog plasma [3]; 3 mg/kg): 3.6 times
Maximum ACT increase (number of times by which the initial time has been increased) (dog plasma [4]; 3 mg/kg): 1.6 times

Cc1nc(N)ccc1CNC(=O)[C@@H]1CCc2cnc(NCC(c3ccccc3)c3ccccc3)c(=O)n21.Cl.Cl [Example 6, (6S)-N-[(6-Amino-2-methyl-3-pyridyl)methyl]-3-[(2,2-diphenylethyl)amino]-4-oxo-4,6,7,8-tetrahydropyrrolo[1,2-a]pyrazine-6-carboxamide dihydrochloride]
TT Ctt2 (concentration that doubles the coagulation time) (human plasma [1]): 0.4 µM
ACT Ctt2 (concentration that doubles the coagulation time) (human plasma [2]): 2.5 µM
IC50 (human thrombin): 11 nM
IC50 (human plasmin): > 33000 nM
IC50 (t-PA): > 33000 nM
IC50 (uPA): > 33000 nM
Maximum TT increase (number of times by which the initial time has been increased) (dog plasma [3]; 10 mg/kg): 6.2 times
Maximum ACT increase (number of times by which the initial time has been increased) (dog plasma [4]; 10 mg/kg): 1.7 times

COc1ccc(CCNc2ncc3n(c2=O)[C@H](C(=O)NCc2ccc(N)nc2C)CC3)cc1OC.Cl.Cl.O [Example 7, (6S)-N-[(6-Amino-2-methyl-3-pyridyl)methyl]-3-[(3,4-dimethoxyphenethyl)amino]-4-oxo-4,6,7,8-tetrahydropyrrolo[1,2-a]pyrazine-6-carboxamide dihydrochloride monohydrate]
TT Ctt2 (concentration that doubles the coagulation time) (human plasma [1]): 3 µM
ACT Ctt2 (concentration that doubles the coagulation time) (human plasma [2]): 9.1 µM
IC50 (human thrombin): 42 nM
IC50 (human plasmin): > 33000 nM
IC50 (t-PA): > 33000 nM
IC50 (uPA): > 33000 nM
Maximum TT increase (number of times by which the initial time has been increased) (dog plasma [3]; 3 mg/kg): 2.5 times
Maximum ACT increase (number of times by which the initial time has been increased) (dog plasma [4]; 3 mg/kg): 1.4 times

Cc1nc(N)ccc1CNC(=O)[C@@H]1CCc2cnc(NCCc3ccccn3)c(=O)n21.Cl.Cl.Cl [Example 15, (6S)-N-[(6-Amino-2-methyl-3-pyridyl)methyl]-4-oxo-3-[2-(2-pyridyl)ethylamino]-4,6,7,8-tetrahydropyrrolo[1,2-a]pyrazine-6-carboxamide trihydrochloride]
TT Ctt2 (concentration that doubles the coagulation time) (human plasma [1]): 0.11 µM
ACT Ctt2 (concentration that doubles the coagulation time) (human plasma [2]): 1.3 µM
IC50 (human thrombin): 7 nM
IC50 (human plasmin): > 33000 nM
IC50 (t-PA): > 33000 nM
IC50 (uPA): > 33000 nM
Maximum TT increase (number of times by which the initial time has been increased) (dog plasma [3]; 3 mg/kg): 7 times
Maximum ACT increase (number of times by which the initial time has been increased) (dog plasma [4]; 3 mg/kg): 1.6 times

Cc1nc(N)ccc1CNC(=O)[C@@H]1CCc2cnc(NCCc3cccnc3)c(=O)n21.Cl.Cl.Cl [Example 16, (6S)-N-[(6-Amino-2-methyl-3-pyridyl)methyl]-4-oxo-3-[2-(3-pyridyl)ethylamino]-4,6,7,8-tetrahydropyrrolo[1,2-a]pyrazine-6-carboxamide trihydrochloride]
TT Ctt2 (concentration that doubles the coagulation time) (human plasma [1]): 0.17 µM
ACT Ctt2 (concentration that doubles the coagulation time) (human plasma [2]): 1.6 µM
IC50 (human thrombin): 17 nM
Maximum TT increase (number of times by which the initial time has been increased) (dog plasma [3]; 10 mg/kg): 13.3 times
Maximum ACT increase (number of times by which the initial time has been increased) (dog plasma [4]; 10 mg/kg): 2.4 times

Cc1nc(N)ccc1CNC(=O)[C@@H]1CCc2cnc(NCC(c3ccccn3)c3ccccn3)c(=O)n21.Cl.Cl.Cl.Cl [Example 22, (6S)-N-[(6-Amino-2-methyl-3-pyridyl)methyl]-3-[2,2-di-(2-pyridyl)ethylamino]-4-oxo-4,6,7,8-tetrahydropyrrolo[1,2-a]pyrazine-6-carboxamide tetrahydrochloride]
TT Ctt2 (concentration that doubles the coagulation time) (human plasma [1]): 0.22 µM
ACT Ctt2 (concentration that doubles the coagulation time) (human plasma [2]): 3.07 µM
IC50 (human thrombin): 20 nM
Maximum TT increase (number of times by which the initial time has been increased) (dog plasma [3]; 10 mg/kg): 4.5 times
Maximum ACT increase (number of times by which the initial time has been increased) (dog plasma [4]; 10 mg/kg): 1.5 times

COc1ccc(C(CNc2ncc3n(c2=O)[C@H](C(=O)NCc2ccc(N)nc2C)CC3)c2ccc(OC)cc2)cc1.Cl.Cl [Example 23, (6S)-N-[(6-Amino-2-methyl-3-pyridyl)methyl]-3-[2,2-bis-(4-methoxy-phenyl)ethylamino]-4-oxo-4,6,7,8-tetrahydropyrrolo[1,2-a]pyrazine-6-carboxamide dihydrochloride]
TT Ctt2 (concentration that doubles the coagulation time) (human plasma [1]): 0.24 µM
ACT Ctt2 (concentration that doubles the coagulation time) (human plasma [2]): 2.75 µM
IC50 (human thrombin): 3.9 nM

Cc1nc(N)ccc1CNC(=O)[C@@H]1CCc2cnc(NCC3c4ccccc4CCc4ccccc43)c(=O)n21 [Example 40, (6S)-N-[(6-Amino-2-methyl-3-pyridyl)methyl]-3-[(10,11-dihydro-5H-dibenzo[a,d]cyclohepten-5-yl)methylamino]-4-oxo-4,6,7,8-tetrahydropyrrolo[1,2-a]pyrazine-6-carboxamide dihydrochloride]
IC50 (human thrombin): 43 nM

Cc1nc(N)ccc1CNC(=O)[C@@H]1CCc2cnc(NCCc3cccc4ccccc34)c(=O)n21 [Example 50, (6S)-N-[(6-Amino-2-methyl-3-pyridyl)methyl]-3-[2-(1-naphthyl)ethylamino]-4-oxo-4,6,7,8-tetrahydropyrrolo[1,2-a]pyrazine-6-carboxamide dihydrochloride]
IC50 (human thrombin): 29 nM

Cc1cc(CNC(=O)[C@@H]2CCc3cnc(NCCc4ccccn4)c(=O)n32)c(C)nc1N.Cl.Cl.Cl [Example 68, (6S)-N-[(6-Amino-2,5-dimethyl-3-pyridyl)methyl]-3-[2-(2-pyridyl)ethylamino]-4-oxo-4,6,7,8-tetrahydropyrrolo[1,2-a]pyrazine-6-carboxamide trihydrochloride]
TT Ctt2 (concentration that doubles the coagulation time) (human plasma [1]): 0.23 µM
ACT Ctt2 (concentration that doubles the coagulation time) (human plasma [2]): 2.04 µM
IC50 (human thrombin): 16 nM

CCNC(=O)COc1ccccc1CNC(=O)[C@@H]1CCc2cnc(NCCc3ccccc3)c(=O)n21 [Example 71, (6S)-N-[(2-Ethylcarbamoylmethoxy)benzyl]-4-oxo-3-(2-phenethylamino)-4,6,7,8-tetrahydropyrrolo [1,2-a]pyrazine-6-carboxamide]
IC50 (human thrombin): 13 nM
IC50 (human plasmin): > 33000 nM
IC50 (t-PA): > 33000 nM
IC50 (uPA): > 33000 nM

COc1ccc(C(CNc2ncc3n(c2=O)C(C(=O)NCc2ccc(N)nc2C)CC3)c2ccc(OC)cc2)cc1.Cl.Cl (centres unmarked) [Example 98, N-[(6-Amino-2-methyl-3-pyridyl)-methyl]-3-[2,2-bis-(4-methoxy-phenyl)-ethylamino]-4-oxo-4,6,7,8-tetrahydropyrrolo[1,2-a]pyrazine-6-carboxamide dihydrochloride]
TT Ctt2 (concentration that doubles the coagulation time) (human plasma [1]): 0.33 µM
ACT Ctt2 (concentration that doubles the coagulation time) (human plasma [2]): 3.54 µM
IC50 (human thrombin): 8 nM
IC50 (human plasmin): > 33000 nM
IC50 (t-PA): > 33000 nM
IC50 (uPA): > 33000 nM
Maximum TT increase (number of times by which the initial time has been increased) (dog plasma [3]; 10 mg/kg): 6.1 times
Maximum ACT increase (number of times by which the initial time has been increased) (dog plasma [4]; 10 mg/kg): 1.4 times

CCNC(=O)COc1ccccc1CNC(=O)[C@@H]1CCc2cnc(NCC(c3ccccc3)c3ccccc3)c(=O)n21 [Example 103, (6S)-N-[(2-Ethylcarbamoylmethoxy)-benzyl]-4-oxo-3-(2,2-diphenylethylamino)-4,6,7,8-tetrahydropyrrolo[1,2-a]pyrazine-6-carboxamide hydrochloride]
IC50 (human thrombin): 14 nM
